{"source": "patent US6770738B1", "about": "“Higher order structure and binding of peptide nucleic acids” (ISIS Pharmaceuticals, Inc., priority 1992, dated 2004)", "assay_type_in_all_cases": "biochemical", "key": {"[1]": {"system": "Taq DNA polymerase primer extension on pAIOKS", "assay": "Inhibition of Taq DNA polymerase primer extension by PNA", "conditions": "pre-formed complex, 1 ug PNA", "description": "A mixture of 100 500 ng Pvull cleaved plasmid pAIOKS, 0.1 ug M13 reverse primer and 1 ug of PNA T10-LysNH2(SEQ ID NO:2) in 10 ul buffer ([…], pH 8.3, 50 mM KCl, 1.5 mM MgCl2, 0.1 mg/ml gelatine) was incubated for 5 min at 90° C. and then for 60 min at 37° C. Subsequently, 1 U of Taq polymerase, 1 ul dCTP (100 uM), dGTP (100 uM), dTTP (100 uM) and ^32 P-dATP (1 uCi) were added and the incubation continued for 5 min at 20° C. Following the addition of 2 ul dATP, dCTP, dGTP, dTTP (1 mM each), the sample was incubated for 15 min at 60° C. The DNA was precipitated with ethanol and the samples treated as described for Example 18. The results are shown in FIG. 19: Lane 1: pTIOKS was cut with PvuII and no PNA was present. Lane 2: same as lane one with PNA present. Lane 3: no PNA and PTIOKS was cut with BamHl."}, "[2]": {"system": "pT9CT9C plasmid linearized by CfrlOI", "assay": "Site-specific S1 nuclease digestion of plasmid with two PNA sites complexed with PNA", "conditions": "30 units S1 nuclease; target sites are for T5CT4", "excerpt": "was cloned into the Sal1 site of the pUC19 plasmid. This plasmid, which contained two binding sites for PNA H-T5CT4-LysNH2 (SEQ ID NO:6) separated by six base pairs, was designated pT9CT9C. Strand displacement in the two T5CT4 sites led to opening of the entire region, including the sequence GTCGAC/GACGAC, providing a substrate for the S1 nuclease in both strands. As control, a pT9C-5 plasmid was used, which carried only one T5CT4 (SEQ ID NO:6) insert cloned into the SalI site of the pUC19 plasmid.\ncloned in the Sal1 site of the pUC19 polylinker. The pT9C-5 plasmid carried the single insert A5GA4/CT5 (SEQ ID NO:4) cloned in the same site. The PNA-DNA complexes were prepared as described in Example 2 with the only difference being the duration of the incubation was 2 hours. Digestion by 30 units of the S1 nuclease was performed in the same buffer as described in Example 2 with two exceptions, lanes 2 and 4. In lane 2, 15 units of the enzyme were used, whereas in lane 4 200 mM NaCl and 1 mM of ZnSO4 were added to the buffer. Lane 1: the reference band obtained by digestion with the BamHI restriction enzyme of the pUC 19 plasmid linearized by the CfrlOI restriction enzyme. Lanes 2-4 site-specific digestion by the S1 nuclease of the linearized pT9C plasmid complexed with PNA H-T5CT4-LysNH2 (SEQ ID NO:6). Lanes 5-7: various controls. Lane 8: the same experiment as in lane 3, but using PNA T10 (SEQ ID NO:2) instead of T4CT5 (SEQ ID NO:8). Lane 9: the same experiment as in lane 3, but using PNA T2CT2CT4 (SEQ ID NO:1) instead of T4CT5 (SEQ ID NO:8). Lane 10: the same experiment as in lane 3, but using the pT9C-5 plasmid instead of the pT9C. In the header PNA T5CT4 (SEQ ID NO:6) is labelled as 1, T10 (SEQ ID NO:2) as 2 and T2CT2CT4 (SEQ ID NO:1) as 3.\nThe bands observed by gel electrophoresis have the same position and width as the band created by the BamHI restriction enzyme. […] Moreover, under the much milder S1 nuclease treatment necessary to generate the data for the pT9CT9C, the yield of double-stranded breaks in the pT9C-5 plasmid was extremely low (lane 10)."}, "[3]": {"system": "T3 RNA polymerase transcription of pA10KS (d(A10) target)", "assay": "Inhibition of RNA polymerase T3 transcription elongation by PNA", "conditions": "PNA 1 or 10 uM bound to the template strand", "description": "The complex, between PNA T10-LysNH2 (SEQ ID NO:2) (1 or 10 um) and pAIOKS (pBluescriptKS^+ in which the d(A10) target is cloned into the BamHl site, analogous to pTlO) (100 ng) cleaved with restriction enzyme PyuII, XbaI, or BamHl, was formed by incubation in 14 μL 10 m Tris-HCl, 1 mM EDTA, (pH 7.4) buffer for 60 min. at 37° C. Subsequently 4 μL 5× concentrated polymerase buffer (0.2 M Tris-HCl, pH 8.0, 125 mM NaCl, 40 mM MgCl2, 10 mM spermidine) was added together with 15 U T3 RNA polymerase and ATP (10 mM), CTP (10 mM), GTP (10 mM), UTP (1 mM) and ^32P-UTP (0.1 μCi), and the incubation was continued for 10 min. Following ethanol precipitation, the RNA was analyzed by electrophoresis in sequencing gels and the radiolabeled bands were visualized by autoradiography using intensifying screens. The results are shown in FIG. 18: Lane 1: pTIOKS was cut with PyuH and no PNA was present. Lane 2: pTIOKS was cut with BamHl, and no PNA was present. Lane 3: pTIOKS was cut with XbaI, no PNA. Lane 4: as in lane 1 but in the presence of PNA (1 uM). Lane 5: as lane 3+PNA (1 uM). Lane 6: as lane 1+PNA (10 uM). Lane 7: as lane 3+PNA (10 uM).\nThe complex between the desired PNA and the desired DNA (100 ng) cleaved with the desired restriction enzyme was formed by incubation in 14 μL 10 mM Tris-HCl, 1 mM EDTA, (pH 7.4) buffer for 60 min at 37° C. Subsequently 4 μL 5× concentrated polymerase buffer (0.2 M Tris-HCl, pH 8.0, 125 mM NaCl, 40 mM MgCl2 10 mM spermidine) was added together with 15 U of RNA polymerase and ATP (10 μM), CTP (10 mM), UTP (1 mM) and ^32P-UTP (0.1 μCi). The incubation was continued for 10 min. Following ethanol precipitation, the RNA was analyzed by electrophoresis in polyacrylamide sequencing gels, and radialabeled RNA bands were visualized by autoradiography (using Agfa Curix RPI X-ray films and intensifying screens). Quantitation was performed by densitometric scanning using a Molecular Dynamics laser scanner and the ImageQuant™ software.\nIn this example transcription arrest with PNAs shorter than 10 mers was examined. […]"}}, "data": [{"substance": "H-T10LysNH2 [PNA H-T10-LysNH2]", "values": [{"measurement": "primer extension product of Taq DNA polymerase", "setting": "[1]", "value": "a product corresponding in length to blockage at the PNA was produced"}, {"measurement": "S1 nuclease digestion of pT9CT9C plasmid complexed with PNA", "setting": "[2]", "value": "very weak digestion"}, {"measurement": "transcription elongation by RNA polymerase T3", "setting": "[3]", "value": "effectively blocked"}]}]}
